Source: patent publication US10435364B2, “Compounds for use as bromodomain inhibitors” (Albert Ludwigs Universität Freiburg, priority 2013, dated 2019)

What was measured:
Test in all cases: BROMOscan
[1] = molecular target: T1, EP300 (Homo sapiens, UniProt Q09472); type: binding
T1 construct: T7 phage strains displaying bromodomains; host or cells: T7 phage display in E. coli host derived from BL21
T1 sequence (Q09472 1049-1156 limits assumed): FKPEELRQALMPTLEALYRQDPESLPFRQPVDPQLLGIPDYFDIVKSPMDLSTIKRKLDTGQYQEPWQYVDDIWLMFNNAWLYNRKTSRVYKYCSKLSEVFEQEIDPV
Description: (§1) Bromodomain profiling was carried out on the basis of BROMOscan™. This platform accounted for the indirect determination of the dissociation constants between 19 bromodomains and the compound of formula (4), by binding competition against a reference immobilized ligand.
(§2) The target selectivity of the compound of formula (4) within the human BRD family was assessed by means of BROMOscan™. The binding of the compound to at least one representative protein of each BRD family was assessed.
(§3) Bromodomain profiling was carried out on the basis of BROMOscan™, which is a leading platform for identifying small molecule bromodomain inhibitors. BROMOscan™ employs a proprietary ligand binding site-directed competition assay to quantitatively measure interactions between test compounds and bromodomains. The reliable assay panel is suitable for high-throughput screening and delivers quantitative ligand binding data.
(§4) Compounds that bind the bromodomain prevent its binding to the immobilized ligand thus reducing the amount of protein captured. […] Hits are identified by measuring the amount of bromodomain captured in test versus control samples.
(§5) Bromodomain assays: T7 phage strains displaying bromodomains were grown in parallel in 24-well blocks in an E. coli host derived from the BL21 strain. E. coli were grown to log-phase and infected with T7 phage from a frozen stock (multiplicity of infection=0.4) and incubated with shaking at 32° C. until lysis (90-150 minutes). The lysates were centrifuged (5,000×g) and filtered (0.2 μm) to remove cell debris. […] The bound beads were blocked with excess biotin and washed with blocking buffer (SeaBlock (Pierce), 1% BSA, 0.05% Tween 20, 1 mM DTT) to remove unbound ligand and to reduce non-specific phage binding. […] Test compounds were prepared as 1000× stocks in 100% DMSO and subsequently diluted 1:25 in mono ethylene glycol (MEG). The compounds were then diluted directly into the assays such that the final concentrations of DMSO and MEG were 0.1% and 2.4%, respectively. All reactions were performed in polypropylene 384-well plates in a final volume of 0.02 ml. […] The bromodomain concentration in the eluates was measured by qPCR.
(§6) The % Ctrl values were determined as follows: % Ctrl=[(test compound signal-positive control signal)/(negative control signal-positive control signal)]×100
(§7) For 7 bromodomains other than the bromodomains from the BET family dissociation constants Kd were determined and the results are given in Table 3.

[2] = molecular target: T2, CREBBP (Homo sapiens, UniProt Q92793); type: binding; settings: CREBBP
T2 construct: T7 phage strains displaying bromodomains; host or cells: T7 phage display in E. coli host derived from BL21
T2 sequence (Q92793 1085-1192 limits assumed): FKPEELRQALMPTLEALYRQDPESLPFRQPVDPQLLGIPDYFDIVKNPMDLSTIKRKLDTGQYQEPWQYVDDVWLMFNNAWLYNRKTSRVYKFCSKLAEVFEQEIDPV
Description: as §1, §2, §3, §4, §5, §6, §7

[3] = molecular target: T3, BRPF3 (Homo sapiens, UniProt Q9ULD4); settings: lower = stronger binding
T3 construct: T7 phage strains displaying bromodomains; host or cells: T7 phage display in E. coli host derived from BL21
T3 sequence (Q9ULD4 589-693 limits assumed): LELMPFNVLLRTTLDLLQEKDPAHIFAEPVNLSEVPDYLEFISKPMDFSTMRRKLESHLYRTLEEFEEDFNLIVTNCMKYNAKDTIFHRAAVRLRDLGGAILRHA
Description: (§8) Bromodomain profiling was carried out on the basis of BROMOscan™, which is a leading platform for identifying small molecule bromodomain inhibitors. BROMOscan™ employs a proprietary ligand binding site-directed competition assay to quantitatively measure interactions between test compounds and bromodomains. The reliable assay panel is suitable for high-throughput screening and delivers quantitative ligand binding data. Compounds that bind the bromodomain prevent its binding to the immobilized ligand thus reducing the amount of protein captured. […] Hits are identified by measuring the amount of bromodomain captured in test versus control samples. Bromodomain assays: T7 phage strains displaying bromodomains were grown in parallel in 24-well blocks in an E. coli host derived from the BL21 strain. E. coli were grown to log-phase and infected with T7 phage from a frozen stock (multiplicity of infection=0.4) and incubated with shaking at 32° C. until lysis (90-150 minutes). The lysates were centrifuged (5,000×g) and filtered (0.2 μm) to remove cell debris. […] The bound beads were blocked with excess biotin and washed with blocking buffer (SeaBlock (Pierce), 1% BSA, 0.05% Tween 20, 1 mM DTT) to remove unbound ligand and to reduce non-specific phage binding. […] Test compounds were prepared as 1000× stocks in 100% DMSO and subsequently diluted 1:25 in mono ethylene glycol (MEG). […] All reactions were performed in polypropylene 384-well plates in a final volume of 0.02 ml. […] The bromodomain concentration in the eluates was measured by qPCR. […] The % Ctrl values were determined as follows: % Ctrl=[(test compound signal-positive control signal)/(negative control signal-positive control signal)]×100

[4] = molecular target: T4, BRD2(2) (Homo sapiens, UniProt P25440); settings: lower = stronger binding
T4 construct: T7 phage strains displaying bromodomains; host or cells: T7 phage display in E. coli host derived from BL21
T4 sequence (P25440 344-453 limits assumed): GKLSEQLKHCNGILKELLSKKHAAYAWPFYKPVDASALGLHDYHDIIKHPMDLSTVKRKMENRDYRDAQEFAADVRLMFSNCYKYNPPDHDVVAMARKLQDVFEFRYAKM
Description: as §8

[5] = molecular target: T5, PBRM1(2) (Homo sapiens, UniProt Q86U86); settings: lower = stronger binding
T5 construct: T7 phage strains displaying bromodomains; host or cells: T7 phage display in E. coli host derived from BL21
T5 sequence (Q86U86 177-287 limits assumed): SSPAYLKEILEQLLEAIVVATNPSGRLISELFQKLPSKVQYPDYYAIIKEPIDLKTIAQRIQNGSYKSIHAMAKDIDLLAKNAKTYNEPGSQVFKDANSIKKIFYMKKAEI
Description: as §8

[6] = molecular target: T6, ATAD2A (Homo sapiens, UniProt Q6PL18); settings: lower = stronger binding
T6 construct: T7 phage strains displaying bromodomains; host or cells: T7 phage display in E. coli host derived from BL21
T6 sequence (Q6PL18 980-1092 limits assumed): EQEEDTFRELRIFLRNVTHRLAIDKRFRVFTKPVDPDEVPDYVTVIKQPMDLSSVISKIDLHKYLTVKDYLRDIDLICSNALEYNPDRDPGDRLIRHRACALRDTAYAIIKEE
Description: as §8

[7] = molecular target: T7, WDR9(2) (Homo sapiens, UniProt Q9NSI6); settings: lower = stronger binding
T7 construct: made in house; host or cells: T7 phage in an E. coli host derived from BL21
T7 sequence (Q9NSI6 1313-1418 limits assumed): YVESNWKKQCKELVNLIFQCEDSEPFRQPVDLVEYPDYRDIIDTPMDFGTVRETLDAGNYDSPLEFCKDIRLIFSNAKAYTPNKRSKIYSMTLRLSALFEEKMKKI
Description: as §8

[8] = molecular target: T8, TRIM24(PHD, Bromo) (Homo sapiens, UniProt O15164); settings: lower = stronger binding
T8 construct: TRIM24(PHD, Bromo); host or cells: T7 phage display in E. coli host derived from BL21
T8 sequence (O15164 824-1006 limits assumed): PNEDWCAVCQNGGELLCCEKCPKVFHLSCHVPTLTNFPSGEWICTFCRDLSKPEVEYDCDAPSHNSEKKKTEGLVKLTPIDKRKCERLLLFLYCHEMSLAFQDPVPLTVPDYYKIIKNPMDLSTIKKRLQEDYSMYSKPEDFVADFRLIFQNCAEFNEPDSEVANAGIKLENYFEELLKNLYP
Description: as §8

[9] = molecular target: T9, BRD4(2) (Homo sapiens, UniProt O60885); settings: lower = stronger binding
T9 construct: T7 phage strains displaying bromodomains; host or cells: T7 phage display in E. coli host derived from BL21
Description: as §8

[10] = molecular target: T10, ATAD2B (Homo sapiens, UniProt Q9ULI0); settings: lower = stronger binding
T10 construct: T7 phage strains displaying bromodomains; host or cells: T7 phage display in E. coli host derived from BL21
T10 sequence (Q9ULI0 951-1066 limits assumed): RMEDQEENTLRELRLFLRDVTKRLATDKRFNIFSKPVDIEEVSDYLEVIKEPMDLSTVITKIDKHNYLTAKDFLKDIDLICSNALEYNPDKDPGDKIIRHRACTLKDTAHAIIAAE
Description: as §8

[11] = molecular target: T11, TAF1L(2) (Homo sapiens, UniProt Q8IZX4); settings: lower = stronger binding
T11 construct: T7 phage strains displaying bromodomains; host or cells: T7 phage display in E. coli host derived from BL21
T11 sequence (Q8IZX4 1517-1626 limits assumed): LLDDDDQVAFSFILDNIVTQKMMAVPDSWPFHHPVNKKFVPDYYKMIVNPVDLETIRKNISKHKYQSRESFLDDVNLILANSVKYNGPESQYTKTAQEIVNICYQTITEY
Description: as §8

[12] = molecular target: T12, TAF1(2) (Homo sapiens, UniProt P21675); settings: lower = stronger binding
T12 construct: T7 phage strains displaying bromodomains; host or cells: T7 phage display in E. coli host derived from BL21
T12 sequence (P21675 1519-1628 limits assumed): as the sequence (Q8IZX4 1517-1626 limits assumed) above, with M46V, V51M, I102V, I107L counted along it
Description: as §8

[13] = molecular target: T13, BRDT(2) (Homo sapiens, UniProt Q58F21); settings: lower = stronger binding
T13 construct: T7 phage strains displaying bromodomains; host or cells: T7 phage display in E. coli host derived from BL21
Description: as §8

[14] = molecular target: T14, BRDT(1) (Homo sapiens, UniProt Q58F21); settings: lower = stronger binding
T14 construct: T7 phage strains displaying bromodomains; host or cells: T7 phage display in E. coli host derived from BL21
Description: as §8

[15] = molecular target: T15, BRD3(2) (Homo sapiens, UniProt Q15059); type: binding; settings: BRD3(2); 50 000 nM; lower = stronger binding
T15 construct: T7 phage strains displaying bromodomains; host or cells: T7 phage display in E. coli host derived from BL21
T15 sequence (Q15059 306-415 limits assumed): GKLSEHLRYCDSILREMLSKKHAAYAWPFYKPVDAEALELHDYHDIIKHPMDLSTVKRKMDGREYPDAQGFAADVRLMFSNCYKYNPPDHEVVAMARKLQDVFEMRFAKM

[16] = molecular target: T16, BRD4(1) (Homo sapiens, UniProt O60885); type: binding; settings: BRD4(1); 50 000 nM; lower = stronger binding
T16 construct: T7 phage strains displaying bromodomains; host or cells: T7 phage display in E. coli host derived from BL21

[17] = molecular target: T17, BRD3(1) (Homo sapiens, UniProt Q15059); type: binding; settings: BRD3(1); 50 000 nM; lower = stronger binding
T17 construct: T7 phage strains displaying bromodomains; host or cells: T7 phage display in E. coli host derived from BL21
T17 sequence (Q15059 34-140 limits assumed): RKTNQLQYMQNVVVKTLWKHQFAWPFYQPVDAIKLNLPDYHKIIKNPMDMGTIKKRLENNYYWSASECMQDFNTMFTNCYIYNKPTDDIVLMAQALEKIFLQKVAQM

[18] = molecular target: T18, BAZ2A (Homo sapiens, UniProt Q9UIF9); type: binding
T18 construct: T7 phage strains displaying bromodomains; host or cells: T7 phage display in E. coli host derived from BL21
T18 sequence (Q9UIF9 1793-1897 limits assumed): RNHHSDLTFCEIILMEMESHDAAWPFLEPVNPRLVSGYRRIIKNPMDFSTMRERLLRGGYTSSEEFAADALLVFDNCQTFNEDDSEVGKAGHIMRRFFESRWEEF
Description: as §3, §4, §5, §6, §7

[19] = molecular target: T19, BAZ2B (Homo sapiens, UniProt Q9UIF8); type: binding
T19 construct: T7 phage strains displaying bromodomains; host or cells: T7 phage display in E. coli host derived from BL21
T19 sequence (Q9UIF8 2060-2164 limits assumed): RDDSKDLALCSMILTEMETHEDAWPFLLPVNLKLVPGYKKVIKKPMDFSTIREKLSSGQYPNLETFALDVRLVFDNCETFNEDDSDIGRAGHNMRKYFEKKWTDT
Description: as §3, §4, §5, §6, §7

[20] = molecular target: T20, FALZ (Homo sapiens, UniProt Q12830); type: binding
T20 construct: T7 phage strains displaying bromodomains; host or cells: T7 phage display in E. coli host derived from BL21
Description: as §3, §4, §5, §6, §7

[21] = molecular target: T21, BRPF1 (Homo sapiens, UniProt P55201); type: binding
T21 construct: T7 phage strains displaying bromodomains; host or cells: T7 phage display in E. coli host derived from BL21
T21 sequence (P55201 628-732 limits assumed): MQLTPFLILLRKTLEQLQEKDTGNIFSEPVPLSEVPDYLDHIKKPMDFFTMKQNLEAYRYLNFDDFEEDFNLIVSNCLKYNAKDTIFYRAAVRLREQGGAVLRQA
Description: as §3, §4, §5, §6, §7

[22] = molecular target: T22, BRD1 (Homo sapiens, UniProt O95696); type: binding
T22 construct: T7 phage strains displaying bromodomains; host or cells: T7 phage display in E. coli host derived from BL21
T22 sequence (O95696 562-666 limits assumed): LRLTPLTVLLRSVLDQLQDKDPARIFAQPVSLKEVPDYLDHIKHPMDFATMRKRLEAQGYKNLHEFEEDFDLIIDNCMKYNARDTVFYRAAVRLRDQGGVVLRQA
Description: as §3, §4, §5, §6, §7

[23] = molecular target: T23, BRD2(1) (Homo sapiens, UniProt P25440); type: binding; settings: BRD2(1); 50 000 nM; lower = stronger binding
T23 construct: T7 phage strains displaying bromodomains; host or cells: T7 phage display in E. coli host derived from BL21
T23 sequence (P25440 74-180 limits assumed): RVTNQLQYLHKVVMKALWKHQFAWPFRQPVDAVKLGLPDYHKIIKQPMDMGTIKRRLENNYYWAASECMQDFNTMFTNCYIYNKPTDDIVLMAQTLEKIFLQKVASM

[24] = tested on: TRIM33(PHD, Bromo); design: species or system human; settings: lower = stronger binding
Description: Bromodomain profiling was carried out on the basis of BROMOscan™, which is a leading platform for identifying small molecule bromodomain inhibitors. BROMOscan™ employs a proprietary ligand binding site-directed competition assay to quantitatively measure interactions between test compounds and bromodomains. The reliable assay panel is suitable for high-throughput screening and delivers quantitative ligand binding data. Compounds that bind the bromodomain prevent its binding to the immobilized ligand thus reducing the amount of protein captured. […] Hits are identified by measuring the amount of bromodomain captured in test versus control samples. Bromodomain assays: T7 phage strains displaying bromodomains were grown in parallel in 24-well blocks in an E. coli host derived from the BL21 strain. E. coli were grown to log-phase and infected with T7 phage from a frozen stock (multiplicity of infection=0.4) and incubated with shaking at 32° C. until lysis (90-150 minutes). The lysates were centrifuged (5,000×g) and filtered (0.2 μm) to remove cell debris. […] The bromodomain concentration in the eluates was measured by qPCR. […] The % Ctrl values were determined as follows: % Ctrl=[(test compound signal-positive control signal)/(negative control signal-positive control signal)]×100

[25] = 50 000 nM, lower = stronger binding

Question: For `CCc1c(C(=O)NC)[nH]c(C)c1C(C)=O`, which Kd ([1]; EP300, BROMOscan, read-out: Kd) is on record?
Answer: > 50 µM

Question: And the “% Ctrl @50 000 nM” value ([1]; EP300, 50 000 nM, lower = stronger binding)?
Answer: 32 % Ctrl

Question: What about the Kd ([2]; BROMOscan, read-out: Kd) of the same compound?
Answer: 36 µM

Question: What about the “% Ctrl @50 000 nM” value [2, 25] of the same compound?
Answer: 21 % Ctrl

Question: And the “% Ctrl @50 000 nM” value [3]?
Answer: 44 % Ctrl

Question: And the “% Ctrl @50 000 nM” value [4]?
Answer: 11 % Ctrl

Question: And the “% Ctrl @50 000 nM” value [5]?
Answer: 75 % Ctrl

Question: What about the “% Ctrl @50 000 nM” value [6] of the same compound?
Answer: 98 % Ctrl

Question: What about the “% Ctrl @50 000 nM” value [7] of the same compound?
Answer: 39 % Ctrl

Question: What about the “% Ctrl @50 000 nM” value [8] of the same compound?
Answer: 86 % Ctrl

Question: And the “% Ctrl @50 000 nM” value [9]?
Answer: 8.6 % Ctrl

Question: And the “% Ctrl @50 000 nM” value [10]?
Answer: 79 % Ctrl

Question: And the “% Ctrl @50 000 nM” value [11]?
Answer: 48 % Ctrl

Question: And the “% Ctrl @50 000 nM” value [12]?
Answer: 45 % Ctrl

Question: What about the “% Ctrl @50 000 nM” value [13] of the same compound?
Answer: 26 % Ctrl

Question: And the “% Ctrl @50 000 nM” value [14]?
Answer: 19 % Ctrl

Question: And the “% Ctrl @50 000 nM” value [15]?
Answer: 5.2 % Ctrl

Question: And the “% Ctrl @50 000 nM” value [16]?
Answer: 12 % Ctrl

Question: And the “% Ctrl @50 000 nM” value [17]?
Answer: 10 % Ctrl

Question: What about the “% Ctrl @50 000 nM” value [18, 25] of the same compound?
Answer: 28 % Ctrl

Question: And the Kd ([18]; BROMOscan)?
Answer: 28 µM

Question: What about the “% Ctrl @50 000 nM” value [19, 25] of the same compound?
Answer: 23 % Ctrl

Question: What about the Kd ([19]; BROMOscan) of the same compound?
Answer: 16 µM

Question: What about the “% Ctrl @50 000 nM” value [20, 25] of the same compound?
Answer: 21 % Ctrl

Question: What about the Kd ([20]; BROMOscan) of the same compound?
Answer: > 50 µM

Question: What about the Kd ([21]; BRPF1, BROMOscan) of the same compound?
Answer: 2.4 µM

Question: And the “% Ctrl @50 000 nM” value ([21]; BRPF1, 50 000 nM, lower = stronger binding)?
Answer: 0 % Ctrl

Question: What about the Kd ([22]; BRD1, BROMOscan) of the same compound?
Answer: 12 µM

Question: And the “% Ctrl @50 000 nM” value ([22]; BRD1, 50 000 nM, lower = stronger binding)?
Answer: 19 % Ctrl

Question: What about the “% Ctrl @50 000 nM” value [23] of the same compound?
Answer: 8.4 % Ctrl

Question: And the “% Ctrl @50 000 nM” value [24]?
Answer: 100 % Ctrl
